Test system: human dermal fibroblasts
Assay type: cell-based
Conditions: 24 h
Experimental: Specifically, human dermal fibroblasts (manufactured by PromoCell) were subcultured in a 24-well plate using a medium for cells in a proportion of 3×10^4 cells/well. […] After 24 hours, the viability of the cells was analyzed.
The viability of the cells was analyzed as follows. The cells were incubated at 37° C. and 5% CO2 for 1 hour in the presence of Neutral Red (pigment) (The live cells incorporating Neutral Red, thereby making the cells distinguishable from dead cells or damaged cells, and quantifiable). Next, 50% ethanol and a solution of 0.05 M NaH2PO4 were added to the cells to thereby extract out the pigment from the cells. Thereafter, the absorbance of the cells was measured with a spectrophotometer at 540 nm, and compared to that of the cells unexposed to the light, and shown as viability (%)=(analytical value at 540 nm of the photo-irradiated cells×100/analytical value at 540 nm of the cells not irradiated with light) in Table 26.
The evaluation was made in the same manner as in Example 231 except that the composition used during the incubation for 24 hours was changed to have the components as listed in Tables 26 to 29.

Structure (SMILES): C[C@H](O)[C@H](O)[C@@H](O)[C@@H](O)C=O [rhamnose]
- viability: about 5%
